This note sets out measurements from article PMC12435366, “Maleic anhydride derived diphosphines: adaptable chelators for receptor-targeted ^99mTc, ^64Cu and ^188Re radiotracers” (Chemical Science, 2025).

The structures appear in SMILES notation.

This test has as its system LNCaP prostate cancer cells. Description: In vitro uptake of 99mTc tracers in LNCaP cells. In kind it is cell-based. To be noted: co-incubation with PMPA, 1 h. How it is done:
To compare the relative uptake and specificity of the new radiotracers for PSMA, [^99mTcO2(DP^Ph-PSMAt)2]^+, [^99mTcO2(DP^An-PSMAt)2]^+ and [^99mTcO2(DP^MEP-PSMAt)2]^+ (50 kBq) were purified from unreacted ^99mTc precursors and excess DP-PSMAt peptide, and each incubated with PSMA-expressing DU145-PSMA+ prostate cancer cells[33] or LNCaP prostate cancer cells (5 × 10^5 cells). After 1 h incubation, uptake of each radiotracer was quantified. […]
4.9 99mTc uptake in DU145, DU145-PSMA+ and LNCaP cells
The following experiment was performed in biological triplicate.
A panel of cell lines were selected that either expressed GCP(II)/PSMA (DU145-PSMA+ (genetically modified to express PSMA),12 and LNCaP (CRL‐1740)), or had low GCP(II)/PSMA expression (DU145 (HTB-81)). All cell lines were cultured in RPMI 1640 medium (R0883, Sigma) containing 10% foetal bovine serum, 2 mM L-glutamine, and 100 U mL−1 penicillin and 100 µg mL−1 streptomycin. Cells were maintained at 37 °C and 5% CO 2. Cells were seeded in 6-well plates at a density of 5 × 10^5 cells per well […]
in 2 mL complete media to achieve 70–80% confluency the following day. […] The cells were lysed with ice cold radioimmunoprecipitation assay buffer (RIPA buffer, 500 μL; 150 mM sodium chloride, 0.1% w/w sodium dodecyl sulfate (SDS), 0.5% w/w sodium deoxycholate (NaDOC), 1% w/w Triton-X) and samples were collected for radioactivity counting. […]

For `COCCOc1ccc(P(/C(C(=O)O)=C(/C(=O)NCCOCCOCCOCCOCCC(=O)NCCCC[C@H](NC(=O)N[C@@H](CCC(=O)O)C(=O)O)C(=O)O)P(c2ccc(OCCOC)cc2)c2ccc(OCCOC)cc2)c2ccc(OCCOC)cc2)cc1` [[^99mTcO2(DP^MEP-PSMAt)2]^+, metal not drawn], the “blocking of cell uptake by PSMA inhibitor PMPA” value was “blocked”. As for `COc1ccc(P(/C(C(=O)O)=C(/C(=O)NCCOCCOCCOCCOCCC(=O)NCCCC[C@H](NC(=O)N[C@@H](CCC(=O)O)C(=O)O)C(=O)O)P(c2ccc(OC)cc2)c2ccc(OC)cc2)c2ccc(OC)cc2)cc1` [[^99mTcO2(DP^An-PSMAt)2]^+, metal not drawn], the “blocking of cell uptake by PSMA inhibitor PMPA” value is recorded as “blocked”.
